The values below come from US8163684B2, “Antimicrobials having polyquaternary ammoniums and alcohol-bearing amidoamines and methods for their use” (Abbott Medical Optics Inc., priority 2008, dated 2012).

Experiment [1] relates to trophzoite and cyst-type Acanthamoeba. Conditions: stated as known; cited from earlier work.
Another experiment has as its system Fusarium. The conditions noted are these: stated as known; cited from earlier work.
For experiment [2], the system named is S. marcescens. The experiment can be described thus: log drop at contact time of 6 hours in test tube without lenses, S. marcescens. It counts as cell-based. The procedure:
To test the biocidal efficacy of other solutions comprising the synergistic combination of a polyquaternary ammonium compound and an amidoamine having an alcohol group, three (3) solutions were prepared by blending together the components provided in Table 2. Approximately three (3) mL was placed into a test tube with S. marcescens. When utilized, the amidoamine was RAPD and the polyquaternary ammonium compound was polyquaternium-1. Table 2 below provides the ingredients of the contact lens care solutions tested as well as the activity of the solutions against S. marcescens after six hours. Further testing was performed to test the biocidal efficacy of other solutions comprising the synergistic combination of a polyquaternary ammonium compound and an amidoamine having an alcohol group. Approximately three (3) mL was placed into a test tube with S. marcescens. When utilized, the amidoamine was RAPD and the polyquaternary ammonium compound was polyquaternium-1. Table 3 below provides the ingredients of the contact lens care solutions tested as well as the activity of the solutions against S. marcescens after six hours.

The test system of experiment [3] is S. marcescens. Put plainly: log drop at contact time of 6 hours in lens case with PureVision lens, S. marcescens. It counts as cell-based. The conditions noted are these: Table 2 solution. The procedure: To test the biocidal efficacy of other solutions comprising the synergistic combination of a polyquaternary ammonium compound and an amidoamine having an alcohol group, three (3) solutions were prepared by blending together the components provided in Table 2. […] When utilized, the amidoamine was RAPD and the polyquaternary ammonium compound was polyquaternium-1. Table 2 below provides the ingredients of the contact lens care solutions tested as well as the activity of the solutions against S. marcescens after six hours.

For a further experiment, the system named is F. solani. The experiment can be described thus: log drop in 6 hours in lens case with PureVision lens, F. solani. It counts as cell-based. The conditions noted are these: for log drop in 6 hours in lens case with PureVision lens, F. solani: sole antimicrobial, Table 1 solution, room temperature. From the text:
(§1) Approximately three (3) mL of each solution was introduced into a lens case containing a PureVision® soft contact lens. Each contact lens was maintained in this solution at room temperature for about six (6) hours. The amidoamine used was ricinoleamidopropyl dimethylamine (RAPD), an amidoamine with an alcohol group. Table 1 below provides the ingredients of the contact lens care solutions tested as well as the activity of the various solutions against Candida and Fusarium after six hours.

The test system of the next experiment is Acanthamoeba polyphaga. The experiment can be described thus: log drop in 6 hours in test tube, Acanthamoeba polyphaga. It counts as cell-based. The procedure:
To test the biocidal efficacy of a solution comprising the synergistic combination of a polyquaternary ammonium compound and an amidoamine having an alcohol group, four (4) solutions were prepared by blending together the components provided in Table 4. Approximately three (3) mL of three of the solutions was placed into a test tube with A. polyphaga. When utilized, the amidoamine was RAPD and the polyquaternary ammonium compound was polyquaternium-1. Table 4 below provides the ingredients of the contact lens care solutions tested as well as the activity of the solutions against Acanthamoeba polyphaga after six hours. To test the biocidal efficacy of other solutions comprising the synergistic combination of a polyquaternary ammonium compound and an amidoamine having an alcohol group, three (3) solutions were prepared by blending together the components provided in Table 5. Approximately three (3) mL of two of the solutions was placed into a test tube with A. polyphaga. When utilized, the amidoamine was RAPD and the polyquaternary ammonium compound was polyquaternium-1. Table 5 below provides the ingredients of the contact lens care solutions tested as well as the activity of the solutions against A. polyphaga after six hours.

In another experiment the test system is C. albicans. Put plainly: log drop in 6 hours in lens case with PureVision lens, C. albicans. It counts as cell-based, Candida albicans.
From the text: as §1
To test the biocidal efficacy of a solution comprising the synergistic combination of a polyquaternary ammonium compound and an amidoamine having an alcohol group, four (4) solutions were prepared by blending together the components provided in Table 4. Approximately three (3) mL of three of the solutions was placed into a test tube with A. polyphaga. When utilized, the amidoamine was RAPD and the polyquaternary ammonium compound was polyquaternium-1. Table 4 below provides the ingredients of the contact lens care solutions tested as well as the activity of the solutions against Acanthamoeba polyphaga after six hours.

The mark [4] stands for this setting: RAPD as the sole antimicrobial agent, Table 1 solutions.
The mark [5] stands for this setting: RAPD 0.0005 % w/w, no CPC, no PQ-1, Table 4 solution.

Take `CCCCC(CC)CNC(=N)NC(=N)NCCCCCCNC(=N)NC(=N)NCC(CC)CCCC` (stereo not shown) [alexidine]: in experiment [1], the “biocidal activity against trophzoite and cyst-type Acanthamoeba (in words)” value was “very biocidal”. For the same molecule, the “biocidal activity against Fusarium (in words)” value in the experiment with Fusarium is “not very biocidal”.

For the molecule “poly[(dimethyliminio)-2-butene-1,4-diylchloride (1:1)], a-[4-[tris(2-hydroxyethyl)ammonio]-2-buten-1-yl]-w-[tris(2-hydroxyethyl)ammonio]-chloride [PQ-1]”, the “log drop at contact time of 6 hours in test tube without lenses, S. marcescens” value in the experiment on S. marcescens [2] (PQ-1 0.001 % w/w, no RAPD, citrate/borate solution of Tables 2 and 3) is listed as 1.53 log. Besides, in the experiment with S. marcescens [3] (PQ-1 0.001 % w/w, no RAPD), the “log drop at contact time of 6 hours in lens case with PureVision lens, S. marcescens” value is listed as 1.07 log.

As to `CCCCCC[C@@H](O)C/C=C\CCCCCCCC(=O)NCCCN(C)C` [RAPD, ricinoleamidopropyl dimethylamine], the “log drop at contact time of 6 hours in test tube without lenses, S. marcescens” value in the experiment on S. marcescens [2] (RAPD 0.0005 % w/w, no PQ-1, Table 3 solution) was found to be 0.44 log; with S. marcescens [2] (RAPD 0.001 % w/w, no PQ-1, Table 3 solution), 1.51 log; with S. marcescens [2] (RAPD 0.002 % w/w, no PQ-1, Table 2 solution), 1.77 log. The “log drop in 6 hours in lens case with PureVision lens, F. solani” value with F. solani (RAPD 0.0002 % w/w) is listed as 0.48 log; in the experiment with F. solani (RAPD 0.0005 % w/w), 0.37 log; in the experiment on F. solani (RAPD 0.001 % w/w) it was 0.35 log. The “biocidal activity against Fusarium (in words)” value in the experiment on F. solani (setting [4]) was “very low biocidal activity”. The “log drop in 6 hours in test tube, Acanthamoeba polyphaga” value in the experiment on Acanthamoeba polyphaga (setting [5]) was 0.18 log. In the experiment on Acanthamoeba polyphaga (RAPD 0.002 % w/w, no PQ-1, no CPC, Table 5 solution), the “log drop in 6 hours in test tube, A. polyphaga” value came to 1.90 log. Besides, the “log drop at contact time of 6 hours in lens case with PureVision lens, S. marcescens” value in the experiment on S. marcescens [3] (RAPD 0.002 % w/w, no PQ-1) was 0.91 log. In addition, the “log drop in 6 hours in lens case with PureVision lens, C. albicans” value is recorded as 0.26 log in the experiment on C. albicans (RAPD 0.0002 % w/w, sole antimicrobial, Table 1 solution, room temperature); less than 0.28 log in the experiment with C. albicans (setting [5]); 0.33 log in the experiment with C. albicans (RAPD 0.0005 % w/w, sole antimicrobial, Table 1 solution, room temperature); 0.21 log with C. albicans (RAPD 0.001 % w/w, sole antimicrobial, Table 1 solution, room temperature). In addition, the “biocidal activity against Candida (in words)” value with C. albicans (setting [4]) is listed as “very low biocidal activity”.
